Test results taken from PubChem BioAssay AID328 (DTP/NCI, 2004).
Where “and” joins values, the source holds several entries; their conditions need not be identical. Equal entries are not always repeated. Toxic doses and inconclusive results are not listed.

System: BDF1 mice, P388 leukemia ip, median survival T/C
Assay: NCI In Vivo Anticancer Drug Screen. Data for tumor model P388 Leukemia (intraperitoneal) in B6D2F1 (BDF1) mice
Conditions: endpoint: median survival time, higher = longer survival
In short: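 Read-out is survival of treated animals expressed relative to the vehicle group, as a T/C ratio.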

[1] = dose: 50.0 mg/kg/injection, schedule: Q01DX009 (ip), vehicle: saline with Tween-80
[2] = dose: 100.0 mg/kg/injection, schedule: Q01DX009 (ip), vehicle: saline with Tween-80
[3] = dose: 100.0 mg/kg/injection, schedule: Q01DX009 (ip), vehicle: Klucel (hydroxypropylcellulose) (HPC)
[4] = dose: 100.0 mg/kg/injection, schedule: Q04DX003 (ip), vehicle: Klucel (hydroxypropylcellulose) (HPC)
[5] = dose: 200.0 mg/kg/injection, schedule: Q01DX009 (ip), vehicle: Klucel (hydroxypropylcellulose) (HPC)
[6] = dose: 200.0 mg/kg/injection, schedule: Q04DX003 (ip), vehicle: Klucel (hydroxypropylcellulose) (HPC)
[7] = dose: 400.0 mg/kg/injection, schedule: Q01DX009 (ip), vehicle: Klucel (hydroxypropylcellulose) (HPC)
[8] = dose: 400.0 mg/kg/injection, schedule: Q04DX003 (ip), vehicle: Klucel (hydroxypropylcellulose) (HPC)

In the case of `COC(COC(N)=O)C1=C(N2CC2)C(=O)C(C)=C(N2CC2)C1=O` (stereo unspecified), the T/C (dose: 0.03 mg/kg/injection, schedule: Q01DX009 (ip), vehicle: saline) is reported as 123 % of control, the T/C (dose: 0.12 mg/kg/injection, schedule: Q01DX009 (ip), vehicle: saline) is reported as 154 % of control and the T/C (dose: 0.25 mg/kg/injection, schedule: Q01DX009 (ip), vehicle: saline) is reported as 190 % of control. For the same compound, the T/C (dose: 0.5 mg/kg/injection, schedule: Q01DX009 (ip), vehicle: saline) was 258 % of control.
With `CCCCCCC(=O)/C=C/c1c(Cl)cccc1Cl` the T/C (dose: 25.0 mg/kg/injection, schedule: Q01DX009 (ip), vehicle: saline with Tween-80) was 91 % of control, the T/C [1] was 112 % of control and the T/C [2] was 103 % of control and 108 % of control. The T/C (dose: 200.0 mg/kg/injection, schedule: Q01DX009 (ip), vehicle: saline with Tween-80) was 116 % of control.
In the case of `CC(=O)C(C)[P+](c1ccccc1)(c1ccccc1)c1ccccc1` (stereo unspecified), the T/C (dose: 2.0 mg/kg/injection, schedule: Q01DX009 (ip), vehicle: water) is reported as 95 % of control, the T/C (dose: 4.0 mg/kg/injection, schedule: Q01DX009 (ip), vehicle: water) is reported as 100 % of control and the T/C (dose: 8.0 mg/kg/injection, schedule: Q01DX009 (ip), vehicle: water) is reported as 93 % of control. For the same compound, the T/C (dose: 12.5 mg/kg/injection, schedule: Q01DX009 (ip), vehicle: water) was 96 % of control, the T/C (dose: 16.0 mg/kg/injection, schedule: Q01DX009 (ip), vehicle: water) was 103 % of control and the T/C (dose: 25.0 mg/kg/injection, schedule: Q01DX009 (ip), vehicle: water) was 91 % of control.
In the case of `O=C1C(=O)c2ccccc2-c2ccccc21`, the T/C (dose: 0.75 mg/kg/injection, schedule: Q01DX009 (ip), vehicle: carboxymethylcellulose (CMC)) is reported as 100 % of control, the T/C (dose: 1.5 mg/kg/injection, schedule: Q01DX009 (ip), vehicle: carboxymethylcellulose (CMC)) is reported as 109 % of control and the T/C (dose: 3.0 mg/kg/injection, schedule: Q01DX009 (ip), vehicle: carboxymethylcellulose (CMC)) is reported as 95 % of control. For the same compound, the T/C (dose: 6.0 mg/kg/injection, schedule: Q01DX009 (ip), vehicle: carboxymethylcellulose (CMC)) was 114 % of control.
In the case of `Nc1n[nH]c([N+](=O)[O-])n1`, the T/C (dose: 100.0 mg/kg/injection, schedule: Q01DX001 (ip), vehicle: saline sonified) is reported as 108 % of control, the T/C (dose: 200.0 mg/kg/injection, schedule: Q01DX001 (ip), vehicle: saline sonified) is reported as 100 % of control and the T/C (dose: 400.0 mg/kg/injection, schedule: Q01DX001 (ip), vehicle: saline sonified) is reported as 100 % of control.
With `Clc1ccccc1CSc1ncnc2nc[nH]c12` the T/C [3] was 90 % of control, the T/C [4] was 95 % of control and the T/C [5] was 90 % of control. The T/C [6] was 100 % of control, the T/C [7] was 104 % of control and the T/C [8] was 100 % of control.
In the case of `CCN1c2ccccc2CC(C#N)(CCN(C)C)c2ccccc21` (stereo unspecified), the T/C [2] is reported as 100 % of control.
`NC(=S)N/N=C\c1nccc2ccc(N)cc12` was tested, and the T/C [1] was 157 % of control.
With `OCC1C(CO)C2(Cl)C(Cl)=C(Cl)C1(Cl)C2(Cl)Cl` (stereo unspecified) the T/C [3] was 100 % of control, the T/C [4] was 100 % of control and the T/C [5] was 118 % of control. For the same compound, the T/C [6] was 95 % of control, the T/C [7] was 100 % of control and the T/C [8] was 109 % of control.
For `CC(C)OC(CCC#N)c1ccc(Cl)cc1` (stereo unspecified), the T/C (dose: 100.0 mg/kg/injection, schedule: Q04DX003 (ip), vehicle: other) was 95 % of control and the T/C (dose: 400.0 mg/kg/injection, schedule: Q04DX003 (ip), vehicle: other) was 95 % of control.
`[Mg+2]` was tested, and the T/C (dose: 100.0 mg/kg/injection, schedule: Q01DX010 (ip), vehicle: saline) was 100 % of control, the T/C (dose: 200.0 mg/kg/injection, schedule: Q01DX010 (ip), vehicle: saline) was 100 % of control and the T/C (dose: 400.0 mg/kg/injection, schedule: Q01DX010 (ip), vehicle: saline) was 100 % of control.
For `O=C(Nc1ccc(C2=NCCN2)cc1)c1cccc(C(=O)Nc2ccc(C3=NCCN3)cc2)c1`, the T/C (dose: 8.0 mg/kg/injection, schedule: Q01DX010 (ip), vehicle: saline) was 160 % of control, the T/C (dose: 16.0 mg/kg/injection, schedule: Q01DX010 (ip), vehicle: saline) was 163 % of control and 180 % of control and the T/C (dose: 32.0 mg/kg/injection, schedule: Q01DX010 (ip), vehicle: saline) was 195 % of control and 200 % of control. For the same compound, the T/C (dose: 64.0 mg/kg/injection, schedule: Q01DX010 (ip), vehicle: saline) was 235 % of control and 200 % of control.
In the case of `CO[C@H]1OC(=O)C=C2C1=C[C@H]1OC(=O)[C@@]3(C)CCC[C@@]2(C)[C@@H]13`, the T/C (dose: 12.5 mg/kg/injection, schedule: Q01DX009 (ip), vehicle: Klucel (hydroxypropylcellulose) (HPC)) is reported as 100 % of control and the T/C (dose: 25.0 mg/kg/injection, schedule: Q01DX009 (ip), vehicle: Klucel (hydroxypropylcellulose) (HPC)) is reported as 100 % of control.
